Calls of active or inactive are those of the source. Rule as the data show it, for most assays here: actives have a measured Kd and inactives only a lower limit.
Key:
[1] = target: T1, Phosphatidylinositol 5-phosphate 4-kinase type-2 gamma (Homo sapiens, UniProt Q8TBX8)
T1 sequence (Q8TBX8 whole entry): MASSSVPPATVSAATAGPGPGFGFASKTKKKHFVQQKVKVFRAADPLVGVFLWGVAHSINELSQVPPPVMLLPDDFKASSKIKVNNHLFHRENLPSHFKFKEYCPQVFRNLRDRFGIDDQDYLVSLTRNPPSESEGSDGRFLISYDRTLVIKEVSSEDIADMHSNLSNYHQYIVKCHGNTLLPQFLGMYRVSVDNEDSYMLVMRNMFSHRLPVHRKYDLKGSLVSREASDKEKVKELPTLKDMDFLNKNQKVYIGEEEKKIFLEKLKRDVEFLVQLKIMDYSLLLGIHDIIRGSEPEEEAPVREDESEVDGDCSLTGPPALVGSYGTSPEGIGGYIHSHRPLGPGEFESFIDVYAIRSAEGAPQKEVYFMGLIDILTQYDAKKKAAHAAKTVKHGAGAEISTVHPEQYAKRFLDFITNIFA

Ephrin type-B receptor 4 = target: T2, Ephrin type-B receptor 4 (Homo sapiens, UniProt P54760)
T2 sequence (P54760 whole entry): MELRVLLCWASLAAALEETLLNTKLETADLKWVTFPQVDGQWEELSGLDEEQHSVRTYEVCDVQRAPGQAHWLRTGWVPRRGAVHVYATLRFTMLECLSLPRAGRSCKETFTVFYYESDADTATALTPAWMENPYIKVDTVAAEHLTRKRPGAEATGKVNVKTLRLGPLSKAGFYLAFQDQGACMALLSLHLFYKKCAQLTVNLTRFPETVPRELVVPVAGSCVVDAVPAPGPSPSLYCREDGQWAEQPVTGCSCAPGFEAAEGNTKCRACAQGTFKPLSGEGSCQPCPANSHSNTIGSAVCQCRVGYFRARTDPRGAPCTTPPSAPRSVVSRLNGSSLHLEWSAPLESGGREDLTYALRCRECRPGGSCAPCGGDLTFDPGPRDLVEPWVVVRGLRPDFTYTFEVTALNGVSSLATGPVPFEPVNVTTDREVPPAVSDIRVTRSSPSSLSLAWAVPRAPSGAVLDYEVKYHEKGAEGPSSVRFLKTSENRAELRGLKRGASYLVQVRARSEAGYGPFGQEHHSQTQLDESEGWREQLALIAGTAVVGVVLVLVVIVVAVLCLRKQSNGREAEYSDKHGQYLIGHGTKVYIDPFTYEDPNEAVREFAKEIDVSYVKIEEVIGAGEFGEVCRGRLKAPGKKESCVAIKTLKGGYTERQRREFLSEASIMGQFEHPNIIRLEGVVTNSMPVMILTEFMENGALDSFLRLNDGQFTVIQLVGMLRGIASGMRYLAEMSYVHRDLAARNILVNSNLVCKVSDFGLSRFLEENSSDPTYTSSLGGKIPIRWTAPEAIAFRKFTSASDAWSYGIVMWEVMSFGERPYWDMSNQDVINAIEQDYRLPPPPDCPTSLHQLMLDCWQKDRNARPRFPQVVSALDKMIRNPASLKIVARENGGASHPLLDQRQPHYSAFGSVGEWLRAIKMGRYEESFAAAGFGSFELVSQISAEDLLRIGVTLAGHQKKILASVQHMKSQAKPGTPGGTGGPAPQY

[2] = target: T3, Serine/threonine-protein kinase ULK1 (Homo sapiens, UniProt O75385)
T3 sequence (O75385 whole entry): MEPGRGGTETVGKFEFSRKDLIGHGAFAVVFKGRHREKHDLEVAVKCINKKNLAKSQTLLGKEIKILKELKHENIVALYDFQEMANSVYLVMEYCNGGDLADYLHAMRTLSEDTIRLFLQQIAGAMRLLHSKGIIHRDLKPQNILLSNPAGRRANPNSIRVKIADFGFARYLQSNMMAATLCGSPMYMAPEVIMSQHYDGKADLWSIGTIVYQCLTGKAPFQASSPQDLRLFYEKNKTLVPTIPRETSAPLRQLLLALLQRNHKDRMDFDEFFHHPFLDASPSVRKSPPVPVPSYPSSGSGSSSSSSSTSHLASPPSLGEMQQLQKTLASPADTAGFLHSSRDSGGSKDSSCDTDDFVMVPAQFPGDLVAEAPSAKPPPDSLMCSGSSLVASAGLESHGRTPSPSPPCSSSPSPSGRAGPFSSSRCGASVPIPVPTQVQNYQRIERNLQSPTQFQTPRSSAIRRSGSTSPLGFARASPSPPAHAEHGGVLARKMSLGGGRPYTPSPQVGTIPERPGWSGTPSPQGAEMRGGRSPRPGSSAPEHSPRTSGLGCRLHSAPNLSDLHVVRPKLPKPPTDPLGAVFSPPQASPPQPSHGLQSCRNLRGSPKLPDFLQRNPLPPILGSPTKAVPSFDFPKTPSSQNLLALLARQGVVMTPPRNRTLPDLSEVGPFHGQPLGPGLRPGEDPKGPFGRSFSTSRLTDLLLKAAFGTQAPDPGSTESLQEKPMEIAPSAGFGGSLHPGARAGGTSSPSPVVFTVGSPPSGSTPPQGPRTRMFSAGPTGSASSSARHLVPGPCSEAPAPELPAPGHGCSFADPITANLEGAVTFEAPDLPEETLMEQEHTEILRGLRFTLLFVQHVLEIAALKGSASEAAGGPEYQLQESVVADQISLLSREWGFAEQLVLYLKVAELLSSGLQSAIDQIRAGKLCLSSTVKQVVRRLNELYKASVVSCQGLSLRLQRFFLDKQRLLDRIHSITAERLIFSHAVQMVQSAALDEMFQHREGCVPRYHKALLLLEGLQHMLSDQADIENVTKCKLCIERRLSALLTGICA

[3] = target: T4, Probable ATP-dependent RNA helicase DDX6 (Homo sapiens, UniProt P26196)
T4 sequence (P26196 whole entry): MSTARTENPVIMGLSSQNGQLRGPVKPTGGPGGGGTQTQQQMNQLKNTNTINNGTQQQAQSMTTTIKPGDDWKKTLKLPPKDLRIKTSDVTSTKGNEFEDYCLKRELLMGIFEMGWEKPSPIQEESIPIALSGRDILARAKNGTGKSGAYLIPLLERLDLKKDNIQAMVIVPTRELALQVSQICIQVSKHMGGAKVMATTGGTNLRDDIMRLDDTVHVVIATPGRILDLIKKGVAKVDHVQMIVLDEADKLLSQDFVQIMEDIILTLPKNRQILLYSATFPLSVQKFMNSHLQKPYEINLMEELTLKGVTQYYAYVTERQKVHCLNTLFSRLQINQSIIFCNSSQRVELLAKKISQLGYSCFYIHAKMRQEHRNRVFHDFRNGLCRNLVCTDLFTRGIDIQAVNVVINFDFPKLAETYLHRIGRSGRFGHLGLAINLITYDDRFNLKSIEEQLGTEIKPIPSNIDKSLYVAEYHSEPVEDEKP
Also: in the data inactive means no Kd found up to 30 µM.

Kd [1]	Kd (Ephrin type-B receptor 4)	Kd [2]	Kd [3]	SMILES
> 30 µM (inactive)	> 30 µM (inactive)	> 30 µM (inactive)	> 30 µM (inactive)	CN1N=C(N)c2cn([C@@H]3O[C@H](COP(=O)(O)O)[C@@H](O)[C@H]3O)c3ncnc1c23 [TRICIRIBINE PHOSPHATE]
> 30 µM (inactive)	> 30 µM (inactive)	> 30 µM (inactive)	> 30 µM (inactive)	CC(C)Nc1cc(-c2c[nH]c(C(=O)N[C@H](CO)c3cccc(Cl)c3)c2)c(Cl)cn1 [ULIXERTINIB]
> 30 µM (inactive)	> 30 µM (inactive)	> 30 µM (inactive)	> 30 µM (inactive)	CCCS(=O)(=O)Nc1ccc(F)c(C(=O)c2c[nH]c3ncc(-c4ccc(Cl)cc4)cc23)c1F [VEMURAFENIB]
> 30 µM (inactive)	> 30 µM (inactive)	> 30 µM (inactive)	> 30 µM (inactive)	CC[C@@H]1C(=O)N(C)c2cnc(Nc3ccc(C(=O)N[C@H]4CC[C@H](N5CCN(CC6CC6)CC5)CC4)cc3OC)nc2N1C(C)C [VOLASERTIB]
> 30 µM (inactive)	> 30 µM (inactive)	> 30 µM (inactive)	> 30 µM (inactive)	CCn1c(=O)c(-c2cc[nH]n2)cc2c(C)nc(N)nc21 [VOXTALISIB]
1.59 µM (active)	> 30 µM (inactive)	> 30 µM (inactive)	> 30 µM (inactive)	O=C(Nc1ccc(-c2ccnc(Nc3ccc(N4CCOCC4)cc3)n2)cc1)C1CCCN1 (centres undefined) [XL-019]
